Measured values reported in patent US10351566B2, “Therapeutic compounds for pain and synthesis thereof” (priority 2015, dated 2019).
Marks after values point to notes of the source that are not given here.

Columns and labels:
Type in all cases: in vivo
[1] = test system: Taxol-induced neuropathic pain; experiment: Taxol-induced neuropathic pain in mice, SC administration
Experimental: (§1) Study outline in brief: Animals were dosed daily with Taxol for a period of 8 consecutive days (Day 0 to Day 7). On study day 8, prior to drug dosing, the decrease in withdrawal force (tactile allodynia) was verified by applying the von Frey test. After assigning the animals to their treatment groups, the animals were treated daily for a period of 5 days with either vehicle or Formula 1 at different doses. Gabapentin at a dose of 150 mg/kg was dosed only on days of testing (day 8 and day 14).
Response to heat stimuli was assessed using the hotplate apparatus set at 50ΥC. […] At baseline prior to Taxol dosing, the animals' response time to heat was 28.10±1.60 sec (vehicle-treated group). […] However, it is interesting to note that the beneficial activity of Formula 1 on heat hyperalgesia was more noticeable on study day 14, following repeated daily dosing of the compound, than on study day 8 following a single dose (Table 6).

[2] = test system: CCI-induced neuropathic pain; experiment: Chronic constriction injury (CCI) model in mice, SC route; conditions: for Dose of maximum activity / Duration of activity at maximum effect / Level of activity (% of maximum effect-baseline) / Peak of activity (T): CCl model, SC, mice
Experimental: Study outline in brief: The sciatic nerve of mice was exposed under anesthesia, and 3 loose ligations were placed around the nerve. Animals were allowed to recover for 3 days. Tactile allodynia (von Frey testing) and thermal (hot at 50±1° C. and cold at 2±1° C.) hyperalgesia were then assessed. Animals that experienced tactile allodynia were assigned to their treatment groups (vehicle, gabapentin and Formula 1 at different doses). Animals were subsequently treated daily for a period of 5 days with either vehicle or Formula 1 at different doses. Gabapentin at a dose of 150 mg/kg was dosed only on days of testing (day 3 and day 7).

[3] = test system: Taxol-induced neuropathic pain; experiment: Taxol-induced neuropathic pain in mice, oral route
Experimental: as §1
The activity of Formula 1 following oral administration was assessed using the Taxol model (see Study Outline in section 7.1). […] Gabapentin dosed at 150 mg/kg was active for a period of 4 h post-dosing.

[4] = test system: CCI-induced neuropathic pain; experiment: CCI model in mice, IP route; conditions: CCl model
Description: IP route of administration was used for initial proof of principle studies with Formula 1. However, the chosen route of administration in most of the studies conducted with Formula 1 was either SC or PO. A brief protocol outline is provided in each section, for the purpose of understanding the results without elaborating on all the detailed procedures.
Table 7 summarizes the activity of Formula 1 in mice models of neuropathic pain following repeated daily administration using different routes of administration. […] Treatment with Formula 1 show activity without CNS effect.

In the case of `NCC1(CC(=O)O)CCCCC1` [Gabapentin, gabapentin, reference compound], the “response time to heat (50° C.), Mean” value ([1]; 150 mg/kg, Day 0 Pre-Taxol) is reported as 28.5 s, the “response time to heat (50° C.), Mean” value ([1]; 150 mg/kg, Day 8, 1 h) is reported as 18.9* sec and the “response time to heat (50° C.), Mean” value ([1]; 150 mg/kg, Day 8, 2 h) is reported as 22.5* sec. The “response time to heat (50° C.), Mean” value ([1]; 150 mg/kg, Day 8, 4 h) was 16.7 s, the “response time to heat (50° C.), Mean” value ([1]; 150 mg/kg, Day 8, 6 h) was 13.8 s and the “response time to heat (50° C.), Mean” value ([1]; 150 mg/kg, Day 8 Pre-dosing) was 11.1 s. The “response time to heat (50° C.), Mean” value ([1]; 150 mg/kg, Day 14, 1 h) was 25.1* sec, the “response time to heat (50° C.), Mean” value ([1]; 150 mg/kg, Day 14, 2 h) was 25.0 s and the “response time to heat (50° C.), Mean” value ([1]; 150 mg/kg, Day 14, 4 h) was 25.1* sec. For the same compound, the “response time to heat (50° C.), Mean” value ([1]; 150 mg/kg, Day 14, 6 h) was 18.7* sec, the “response time to heat (50° C.), Mean” value ([1]; 150 mg/kg, Day 14 Pre-dosing) was 11.2 s and the “response time to heat (50° C.), Mean” value ([1]; 150 mg/kg, Day 17, No dosing) was 11.5 s. For the same compound, the “period of increase in withdrawal force (von Frey)” value ([1]; Taxol mice, 150 mg/kg) was 4 h, the “Dose of maximum activity” value ([1]; Taxol model, SC, mice) was 150 mg/kg and the “Duration of activity at maximum effect” value ([1]; Taxol model, SC, mice) was 4 H. For the same compound, the “Level of activity (% of maximum effect-baseline)” value ([1]; Taxol model, SC, mice) was 100%, the “Peak of activity (T)” value ([1]; Taxol model, SC, mice) was 2-4 H and the “response time to cold plate” value ([2]; CCI mice, 150 mg/kg) was “increased the response time of the animals to values that were higher than the baseline value”. For the same compound, the “withdrawal force (von Frey)” value ([2]; CCI mice, 150 mg/kg) was “significant, but not complete, reversal”, the “Dose of maximum activity” value ([2]; first SC line) was 150 mg/kg and the “Duration of activity at maximum effect” value ([2]; first SC line) was 4-6 H. For the same compound, the “Level of activity (% of maximum effect-baseline)” value ([2]; first SC line) was 64%, the “Peak of activity (T)” value ([2]; first SC line) was 2-3 H and the “Level of activity (% of maximum effect-baseline)” value ([2]; second SC line (readout not given)) was >100%. The “Dose of maximum activity” value ([2]; second SC line) was 150 mg/kg, the “Duration of activity at maximum effect” value ([2]; second SC line) was 4-6 H and the “Peak of activity (T)” value ([2]; second SC line) was 2-3 H. The “period of activity post-dosing” value ([3]; Taxol mice, 150 mg/kg) was 4 h, the “Dose of maximum activity” value ([3]; Taxol model, PO, mice) was 150 mg/kg and the “Duration of activity at maximum effect” value ([3]; Taxol model, PO, mice) was 4 H. The “Level of activity (% of maximum effect-baseline)” value ([3]; Taxol model, PO, mice) was 100%, the “Peak of activity (T)” value ([3]; Taxol model, PO, mice) was 2-4 H and the “Dose of maximum activity” value [4] was 150 mg/kg. The “Duration of activity at maximum effect” value [4] was 4-6 H, the “Peak of activity (T)” value [4] was 2-3 H and the “Level of activity (% of maximum effect-baseline)” value ([4]; repeated daily administration) was 66%.
